A short description of this data set: Human HepG2 cell viability assay in 384 well format. As to conditions: HepG2 cells, read-out: Inhibition. Further details: dose 125 nL, time 70.5 hour; concentration not given beside the values. It is filed as toxicity, cell-based.
Consider `O=C(Cc1ccc2c(c1)CCO2)Nc1ccc(-n2cncn2)nc1`, for which the cytotoxicity at 70.5 h came out at 16.4%. For `Cn1cncc1-c1nnc([C@H]2CCN(Cc3ccc(CO)o3)C2)o1`, the cytotoxicity at 70.5 h came out at 5.94%. For the compound `Cc1ccc(C(=O)NC2CCCN(C)C2)c(=O)[nH]1` (centres undefined), the cytotoxicity at 70.5 h is -12.5%. For the compound `Cc1nsc(NCc2ccc(S(=O)(=O)N(C)C(C)C)cc2)n1`, the cytotoxicity at 70.5 h is 16.6%.

Take `CCS(=O)(=O)N1CCC(c2nn(CCN(C)C)c3ncccc23)C1` (centres undefined): the cytotoxicity at 70.5 h is -1.3%. As for `Cn1cccc1CN1CCC2(CCCN(C(=O)c3cnccn3)C2)C1` (centres undefined), the figure is 17%; as for `Cc1noc(C2CCCN(C(=O)c3cccc(Cl)c3)C2)n1` (centres undefined), -0.713%; as for `O=C(CC1COCCN1)N1CCC2(CCc3ccccc32)CC1` (centres undefined), 8.47%. Regarding `CO[C@H]1CC[C@H]2[C@H]1OCCN2C(=O)CC1=CCCCC1`, the cytotoxicity at 70.5 h was -2.24%. In the case of `COc1cccc(CN2CCC(c3nccn3C(C)C)CC2)c1` it was -13.1%; in that of `CCCC1CCCN(Cc2csc(-c3ncccn3)n2)CC1` (centres undefined), -1.51%. Turning to `O=C1[C@H]2CN(S(=O)(=O)C3CC3)C[C@H]2CN1CC1CC1`, the cytotoxicity at 70.5 h came to 0.281%.

As to `O=C1NCCCCC1Sc1nnc(-c2cccnc2)n1C1CC1` (centres undefined), the cytotoxicity at 70.5 h is -5.84%. As for `Cc1ccccc1-c1cccc(CN2C[C@H]3C(=O)NC[C@@]3(C(=O)O)C2)c1`, the figure is 12.4%; as for `COCC(=O)NC(C)Cc1ccc(Br)cc1` (centres undefined), 2.28%; as for `NC(=O)c1ccc(C2CCCNC2)nc1` (centres undefined), -4.69%. In the case of `Cc1nc2c(c(NCc3cc4ccccc4s3)n1)CCNCC2` it was -5.12%; in that of `O=S(=O)(c1c(N2CCCCC2)ccc2nonc12)N1CCCCC1`, -8.4%; in that of `CC(C)OCCCNC(=O)CS(=O)(=O)Cc1cccc(Cl)c1`, -10.6%. In the case of `CC(C)c1nc(CN2CCCC(Cn3cncn3)C2)cs1` (centres undefined) it was 29.1%; in that of `O=C1CN(Cc2cn(C3CCN(C4CSCCSC4)CC3)nn2)CCN1`, -13.2%. Take `Cc1cnc(N2CC[C@@H]3CN(Cc4ccncc4)CCO[C@@H]3C2)nc1`: the cytotoxicity at 70.5 h is 8.21%. As for `CCNC(=O)C1(Cc2cc(-c3ccc(C)cc3)no2)CCCN(C)C1` (centres undefined), the figure is -5.63%; as for `Cc1nc(C2CCCN2C(=O)c2ccccc2)ncc1C(N)=O` (centres undefined), -7.95%; as for `CCc1nc(C(=O)N2CCCCC2)nn1-c1ccccc1Cl`, -6.89%. In the case of `Cc1cccc(C(=O)N2CCC[C@]3(C[C@@H](OCC4CC4)CO3)C2)n1` it was -13.9%; in that of `N#Cc1cn(CCN2CCc3ccccc3C2)c(=O)[nH]c1=O`, 0.215%.

`CC(NC(=O)N(C)Cc1ccsc1)c1nncn1C` (centres undefined): the cytotoxicity at 70.5 h was -2.73%. In the case of `CN(C)[C@@H]1CCN(CC2CC2)[C@H]1Cc1cnn(C)c1` it was 0.964%; in that of `Cc1nc(C)n(CC2CCCN2Cc2nc3ccccc3s2)n1` (centres undefined), -5.56%; in that of `CCCc1nnc(SCc2cc(=O)n3c4c(sc3n2)CCCC4)[nH]1`, -6.9%. In the case of `CCc1cccc(N2CCC(NC(=O)CCNC(N)=O)CC2)c1` it was -6.16%.

Take `Cn1c(CN2CCCCC2)cc(=O)c(O)c1CN1CCCCC1`: the cytotoxicity at 70.5 h stood at 2.14%.

For `CC(C)(C)n1ncc(NCC(O)c2ccccc2C(F)(F)F)c(Cl)c1=O` (centres undefined), the cytotoxicity at 70.5 h is 23.5%.

In the case of `CNC(=O)C(C)(C)CNC(=O)Nc1ccc(C)cn1`, the cytotoxicity at 70.5 h was -3.94%.

Consider `O=C(Nc1cccnc1)[C@H]1CN(Cc2nccs2)C[C@H]2OCC[C@@H]12`, for which the cytotoxicity at 70.5 h came out at 35.5%.

For the compound `COCCN1CCN(C(=O)c2ccc(COC)o2)[C@H]2CS(=O)(=O)C[C@H]21`, the cytotoxicity at 70.5 h stood at 11.2%. As for `CCc1cc(N(C)CCc2c(C)n[nH]c2C)ncn1`, the figure is 26.8%; as for `CCn1cnnc1C1CCN(C(=O)c2cccc(-n3cccc3)c2)CC1`, -2.68%. As for `CN(C(=O)CN1CCc2nn(C)c(=O)cc2C1)c1nccs1`, the figure is -4.13%; as for `Cc1cccc(CO[C@@H]2CO[C@@]3(CCN(S(=O)(=O)N(C)C)C3)C2)n1`, -4.3%. For the compound `CC1CCCN(C(=O)NCCCn2cncn2)C1` (centres undefined), the cytotoxicity at 70.5 h was -4.06%. In the case of `CO[C@@H]1CCN(Cc2c(C)noc2C)[C@@H]2CN(Cc3cccnc3)C[C@@H]21` it was -5.86%. In the case of `Cc1n[nH]c(C)c1CCC(=O)N[C@@H]1CCC[C@@H](Oc2ccccc2)[C@@H]1O` it was 21.6%; in that of `Clc1ccc(Cc2nc(CNCCn3cccn3)cs2)cc1`, -1.63%.

Turning to `O=C1CC(c2ccc(F)cc2)c2snc(C(=O)O)c2N1` (centres undefined), the cytotoxicity at 70.5 h is -10.3%. With `CNC(=O)C1CN(Cc2ccc(C#N)cc2F)c2ccccc2O1` (centres undefined), the cytotoxicity at 70.5 h is 1%.

For the compound `Cc1sc2c(C3CCCNC3)nc(Nc3cccc(F)c3)n2c1C` (centres undefined), the cytotoxicity at 70.5 h was -5.08%. On to `CCN(CC1CCOC1)C(=O)CCc1nc(C(C)(C)C)no1` (centres undefined), for which the cytotoxicity at 70.5 h was -10.1%. As for `CCn1cc(NC(=O)C2CCC(=O)N2Cc2ccco2)cn1` (centres undefined), the figure is -6.35%; as for `CCn1cc(S(=O)(=O)NCC(OC)c2ccccc2)cn1` (centres undefined), -3.94%; as for `Cc1n[nH]c(C)c1C1CCCN1C(=O)CNC(=O)C(C)(C)C` (centres undefined), -0.174%. Regarding `Cc1ccc(CN2CCOC3(CCN(CC4CCOC4)CC3)C2)cc1` (centres undefined), the cytotoxicity at 70.5 h is -1.57%. As for `COc1ccccc1CC(=O)N1CC[C@H](O)[C@]2(CCCO2)C1`, the figure is -6.73%. As for `CN(C)Cc1nnc2n1CCN(Cc1ccccn1)CC2`, the cytotoxicity at 70.5 h is -10.5%. Regarding `Cn1ccc(CN2CCC(Oc3ccccc3)CC2)cc1=O`, the cytotoxicity at 70.5 h is -12%.

`CC(C)(O)CCc1ccc(C(=O)N2CCN(CC(F)(F)F)CC2)cc1`: the cytotoxicity at 70.5 h stood at 3.68%.

On to `O=C1CN(C(=O)OCc2ccccc2)CC(O)CN1Cc1ccco1` (centres undefined), for which the cytotoxicity at 70.5 h was determined as 12.1%. In the case of `CS(=O)(=O)N1CCc2c(cccc2NC(=O)NC2CCCC2)C1` it was -3.1%; in that of `CSc1cccc(CNC(=O)[C@H]2CNC[C@@H](C(=O)N3CCOCC3)C2)c1`, -4.8%. Regarding `FC1(F)CCN(Cc2ccccn2)CC12CCN(c1cnccn1)C2` (centres undefined), the cytotoxicity at 70.5 h is -5.08%. As for `CCCN1CCCCC1C(=O)Nc1ccc(-c2nnc[nH]2)cc1` (centres undefined), the figure is -4.51%; as for `Cc1nn(C)c(C)c1CCC(=O)N1CCCC(n2cncn2)C1` (centres undefined), -6.31%; as for `Cc1cc(C)n2nc(C(=O)N[C@H]3C[C@H]4CN(C)CCN4C3)cc2n1`, -6.02%. As for `CCOc1ccccc1NC(=O)NCc1ccoc1`, the cytotoxicity at 70.5 h is -1.18%. As for `CCS(=O)(=O)N1CCc2c(cccc2NC(=O)NCCOC)C1`, the figure is -1.31%; as for `O=C(Nc1ccccc1)[C@H]1O[C@H](CCN2CCCCC2)CC[C@@H]1O`, -3.54%. As for `CNC(=O)C(NC(=O)c1nccn2ccnc12)c1ccc(F)c(F)c1` (centres undefined), the figure is -1.99%; as for `O=S(=O)(c1cccs1)N1CCCn2cnc(CO)c2C1`, -1.4%. In the case of `CCn1c(C(=O)N2CCCN(CC(N)=O)CC2)cc2ccccc21` it was -3.29%; in that of `COc1cc(S(=O)(=O)N2CCc3ccc(F)cc32)cc(C(=O)O)c1OC`, 10.1%; in that of `CC(=O)N[C@@H]1CN(Cc2oc3ccccc3c2C)C[C@H]1c1ccc(C)o1`, -7.22%. For the compound `CCC(c1ccccc1)c1nn2c(CN(CC)CC)nnc2s1` (centres undefined), the cytotoxicity at 70.5 h was -5.77%.

Turning to `O=C(Cc1cnc(-n2cccc2)s1)NCCCO`, the cytotoxicity at 70.5 h is -25%. As for `CC(C)n1[nH]c(=O)c2c1NC(=O)CC2C1CCCCC1` (centres undefined), the figure is 4.13%; as for `O=C1NC2(CCCN(C(=O)CCn3cccn3)C2)Oc2ccccc21` (centres undefined), 1.47%; as for `CCN(CC1CN(Cc2nccn2CC)CCO1)c1cccnn1` (centres undefined), -9.34%. Take `c1cc(CCNc2ncnc3c2CCN(Cc2ccoc2)CC3)ccn1`: the cytotoxicity at 70.5 h was 0.564%. In the case of `NC(=O)c1cc2c(nc1CC1CCCCO1)CCC2` (centres undefined) it was -2.08%. In the case of `CNC(=O)CN1CCC(OCc2ccc(Cl)c(Cl)c2)CC1` it was 3.41%; in that of `COc1ncccc1CNCc1c(C(C)C)nn(C)c1OC`, -4.91%; in that of `Cc1nn(C)c(C)c1C1CCCN1CC(=O)Nc1ccc(Cl)cn1` (centres undefined), 2.19%.

As to `CN(CC(N)=O)Cc1csc(-c2ccc(F)cc2)n1`, the cytotoxicity at 70.5 h is -0.0734%.

As for `N#CCCCn1nnc(C2(NC(=O)c3ccccc3)CCCC2)n1`, the cytotoxicity at 70.5 h is -1.12%. In the case of `Cc1ccc(CCCC(=O)N(C)CCN2CCOCC2)cc1` it was 13.8%; in that of `Cc1cc(CN2CCc3nc(C)n(C)c(=O)c3CC2)[nH]n1`, -5.95%. As for `Cc1nnc(SCC(=O)NCc2ccc3c(c2)CCC(=O)N3)n1C`, the figure is -3%; as for `CCc1nnc(Nc2cccc(C3CCN(C(=O)CO)CC3)n2)s1`, -4.24%. Turning to `Cc1nc2cc(=O)[nH]n2c(C)c1CC(=O)Nc1cnn(C(C)(C)C)c1`, the cytotoxicity at 70.5 h is -3.02%.

Consider `CNC(=O)CN1CCOC(c2cccc(N)n2)C1` (centres undefined), for which the cytotoxicity at 70.5 h is -1.41%. `O=C1NCC[C@]12CN(Cc1ccsc1)C[C@H]2c1ccccc1`: the cytotoxicity at 70.5 h was -4.93%. In the case of `Cc1nc(C(=O)N2C[C@@H]3COC[C@]3(COCc3cccnc3)C2)cs1` it was -6.56%; in that of `CN1C(=O)CC(c2cnn(C)c2)C12CCN(C(=O)c1ccnnc1)CC2` (centres undefined), -9.97%; in that of `Cc1cc(NCC2(O)CCOCC2)nc2ccccc12`, -8.29%. Regarding `N#Cc1cccnc1N1CCCN(C(=O)CCn2cncn2)CC1`, the cytotoxicity at 70.5 h was -4.22%. With `CC(Cn1cccn1)NCc1csc(-c2cccs2)n1` (centres undefined), the cytotoxicity at 70.5 h was -26%. As for `N#Cc1ccnc(N2CCN(CC(O)c3cccc(F)c3)CC2)c1` (centres undefined), the figure is -7.6%; as for `Cn1cc(C2CCCN2C(=O)c2ccc(NC3CC3)nc2)cn1` (centres undefined), 0.0682%. `Cc1ccccc1OCCN1CCn2c(C)nnc2C1`: the cytotoxicity at 70.5 h amounted to 25.1%.

The record behind these values is ChEMBL document CHEMBL3507680, “University of Dundee, Gates Library screen for HepG2 cell viability”.
